# Results as given in US20230095520A1, “PHARMACEUTICAL COMPOSITION FOR PREVENTING OR TREATING CANCER COMPRISING AZOLE DERIVATIVES OR PHARMACEUTICALLY ACCEPTABLE SALT THEREOF” (Yungjin Pharm. Co., Ltd., priority 2020, published 2023).
# Target: T1, Recombinant purified human CDK7 (Homo sapiens, UniProt P50613)
# T1 construct: purchased ThermoFisher PV3868
# Assay: CDK7 activity inhibition, ADP-Glo kinase assay
# Assay type: biochemical
# Details: ATP 90 μM, MBP substrate, 2 hours 30° C.
# Method: Recombinant purified human CDK7 (ThermoFisher, PV3868) and ADP Glo Kinase Assay Kit (Promega, V9102) were used. CDK7 was diluted with 1× kinase reaction buffer (40 mM Tris-Cl, pH 7.5, 20 mM MgCl2, 0.1 mg/ml BSA and 50 μM DTT) and added to a 96 well plate (CDK7 final concentration per reaction: 50 ng). It was finally treated with the compound of the present invention to a 1% DMSO aqueous solution, and a substrate cocktail containing ATP (final concentration of 90 μM) and 0.2 μg/μl MBP (myelin basic protein) in a total of 25 μl reaction mass was added to a 96 well plate, thereby initiating the enzymatic reaction. After 2 hours of incubation (30° C.), an equal volume (25 μl per reaction) of ADP Glo was added and incubated at room temperature for 60 minutes (30° C.). Thereafter, kinase detection reagent (50 μl per reaction) was added and incubated at room temperature for 30 minutes (30° C.). The kinase activity was measured by the chemiluminescence method according to the ADP Glo Kinase Assay Kit instruction manual, and the CDK7 inhibitory activity of the compounds of the present invention was calculated.
# T1 sequence (P50613 whole entry): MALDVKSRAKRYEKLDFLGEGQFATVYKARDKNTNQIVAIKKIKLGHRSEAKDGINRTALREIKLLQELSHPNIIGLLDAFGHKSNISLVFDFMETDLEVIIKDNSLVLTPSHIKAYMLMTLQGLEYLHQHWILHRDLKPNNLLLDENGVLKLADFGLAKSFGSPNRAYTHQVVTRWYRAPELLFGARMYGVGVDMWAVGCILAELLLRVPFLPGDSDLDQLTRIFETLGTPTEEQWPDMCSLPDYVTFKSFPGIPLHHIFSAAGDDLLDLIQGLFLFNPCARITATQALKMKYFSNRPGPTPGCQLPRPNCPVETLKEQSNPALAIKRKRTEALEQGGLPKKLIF
# T1 sequence (P51946 whole entry partner): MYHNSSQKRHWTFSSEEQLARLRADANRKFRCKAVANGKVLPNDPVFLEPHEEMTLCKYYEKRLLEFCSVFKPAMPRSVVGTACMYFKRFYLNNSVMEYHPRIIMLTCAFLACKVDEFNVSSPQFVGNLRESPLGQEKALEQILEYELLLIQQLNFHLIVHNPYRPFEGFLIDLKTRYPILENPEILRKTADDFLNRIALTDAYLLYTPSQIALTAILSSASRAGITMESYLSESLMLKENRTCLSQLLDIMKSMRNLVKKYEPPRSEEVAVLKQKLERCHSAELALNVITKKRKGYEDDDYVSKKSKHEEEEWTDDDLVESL
# T1 sequence (P51948 whole entry partner): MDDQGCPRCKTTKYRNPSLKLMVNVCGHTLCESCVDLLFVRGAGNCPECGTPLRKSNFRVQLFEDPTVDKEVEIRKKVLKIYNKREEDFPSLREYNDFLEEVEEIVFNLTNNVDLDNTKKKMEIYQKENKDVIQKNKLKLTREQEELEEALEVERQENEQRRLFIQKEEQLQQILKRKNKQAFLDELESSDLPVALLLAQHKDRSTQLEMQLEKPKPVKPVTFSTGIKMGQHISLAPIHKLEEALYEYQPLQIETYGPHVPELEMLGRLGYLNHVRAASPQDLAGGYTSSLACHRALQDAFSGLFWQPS
row,SMILES,IC50 [nM]
1,"C=CC(=O)Nc1ccc(-c2cccc(C(C)C(=O)Nc3ncc(C4CC4)s3)c2)cn1 (stereo not drawn) [Compound 2, N-(5-(3-(1-((5-cyclopropylthiazol-2-yl)amino)-1-oxopropan-2-yl)phenyl)pyridin-2-yl)acrylamide]",40
2,"CC(C(=O)Nc1ncc(C2CC2)s1)c1cccc(-c2ccc(NC(=O)/C=C/CN(C)C)nc2)c1 (stereo not drawn) [Compound 6, (E)-N-(5-(3-(1-((5-cyclopropylthiazol-2-yl)amino)-1-oxopropan-2-yl)phenyl)pyridin-2-yl)-4-(dimethylamino)but-2-enamide]",35
3,"C=CC(=O)Nc1ccc(-c2csc(C(C)C(=O)Nc3ncc(Cl)s3)c2)cn1 (stereo not drawn) [Compound 76, N-(5-(5-(1-((5-chlorothiazol-2-yl)amino)-1-oxopropan-2-yl)thiophen-3-yl)pyridin-2-yl)acrylamide]",92
4,"C=CC(=O)Nc1cc(F)c(-c2cncc(C(C)C(=O)Nc3ncc(C(F)(F)F)s3)c2)cn1 (stereo not drawn) [Compound 84, N-(4-fluoro-5′-(1-oxo-1-((5-(trifluoromethyl)thiazol-2-yl)amino)propan-2-yl)-[3,3′-bipyridin]-6-yl)acrylamide]",68
5,"C=CC(=O)Nc1ncc(-c2cncc(C(C)C(=O)Nc3ncc(C(F)(F)F)s3)c2)cc1C#N (stereo not drawn) [Compound 88, N-(5-cyano-5′-(1-oxo-1-((5-(trifluoromethyl)thiazol-2-yl)amino)propan-2-yl)-[3,3′-bipyridin]-6-yl)acrylamide]",16
6,"C[C@H](C(=O)Nc1ncc(C(F)(F)F)s1)c1cccc(-c2cnc(NC(=O)/C=C/CN3CCOCC3)cn2)c1 [Compound 92, (S,E)-4-morpholino-N-(5-(3-(1-oxo-1-((5-(trifluoromethyl)thiazol-2-yl)amino)propan-2-yl)phenyl)pyrazin-2-yl)but-2-enamide]",42
7,"C[C@H](C(=O)Nc1ncc(Cl)s1)c1cccc(-c2cnc(NC(=O)/C=C/CN(C)C)cn2)c1 [Compound 93, (S,E)-N-(5-(3-(1-((5-chlorothiazol-2-yl)amino)-1-oxopropan-2-yl)phenyl)pyrazin-2-yl)-4-(dimethylamino)but-2-enamide]",93
8,"C[C@H](C(=O)Nc1ncc(Cl)s1)c1cccc(-c2cnc(NC(=O)/C=C/CN3CC4CC3CO4)cn2)c1 (stereo partly drawn) [Compound 94, (E)-4-(2-oxa-5-azabicyclo[2.2.1]heptan-5-yl)-N-(5-(3-((S)-1-((5-chlorothiazol-2-yl)amino)-1-oxopropan-2-yl)phenyl)pyrazin-2-yl)but-2-enamide]",14.5
9,"C[C@H](C(=O)Nc1ncc(C(F)(F)F)s1)c1cccc(-c2cnc(NC(=O)/C=C/CN3CCN(C)CC3)cn2)c1 [Compound 95, (S,E)-4-(4-methylpiperazin-1-yl)-N-(5-(3-(1-oxo-1-((5-(trifluoromethyl)thiazol-2-yl)amino)propan-2-yl)phenyl)pyrazin-2-yl)but-2-enamide]",80.4
10,"C[C@H](C(=O)Nc1ncc(Cl)s1)c1cccc(-c2cnc(NC(=O)/C=C/CN3CCOCC3)cn2)c1 [Compound 98, (S,E)-N-(5-(3-(1-((5-chlorothiazol-2-yl)amino)-1-oxopropan-2-yl)phenyl)pyrazin-2-yl)-4-morpholinobut-2-enamide]",87
11,"COc1cc(-c2cccc([C@H](C)C(=O)Nc3ncc(C(F)(F)F)s3)c2)cnc1NC(=O)/C=C/CN(C)C [Compound 100, (S,E)-4-(dimethylamino)-N-(3-methoxy-5-(3-(1-oxo-1-((5-(trifluoromethyl)thiazol-2-yl)amino)propan-2-yl)phenyl)pyridin-2-yl)but-2-enamide]",9.8
12,"C[C@H](C(=O)Nc1ncc(C(F)(F)F)s1)c1cccc(-c2cnc(NC(=O)/C=C/CN3CCCC3)cn2)c1 [Compound 102, (S,E)-N-(5-(3-(1-oxo-1-((5-(trifluoromethyl)thiazol-2-yl)amino)propan-2-yl)phenyl)pyrazin-2-yl)-4-(pyrrolidin-1-yl)but-2-enamide]",13
13,"C[C@H](C(=O)Nc1ncc(C(F)(F)F)s1)c1cccc(-c2cnc(NC(=O)/C=C/CN3CCC3)cn2)c1 [Compound 103, (S,E)-4-(azetidin-1-yl)-N-(5-(3-(1-oxo-1-((5-(trifluoromethyl)thiazol-2-yl)amino)propan-2-yl)phenyl)pyrazin-2-yl)but-2-enamide]",13
14,"C[C@H](C(=O)Nc1ncc(N(C)C)s1)c1cccc(-c2cnc(NC(=O)/C=C/CN(C)C)cn2)c1 [Compound 106, (S,E)-4-(dimethylamino)-N-(5-(3-(1-((5-(dimethylamino)thiazol-2-yl)amino)oxopropan-2-yl)phenyl)pyrazin-2-yl)but-2-enamide]",71
15,"CC(C(=O)Nc1ncc(C(F)(F)F)s1)c1cncc(-c2ccc(NC(=O)/C=C/CN(C)C)nc2)c1 (stereo not drawn) [Compound 107, (E)-4-(dimethylamino)-N-(5′-(1-oxo-1-((5-(trifluoromethyl)thiazol-2-yl)amino)propan-2-yl)-[3,3′-bipyridin]-6-yl)but-2-enamide]",31
16,"COc1nc(-c2cccc([C@H](C)C(=O)Nc3ncc(C(F)(F)F)s3)c2)cnc1NC(=O)/C=C/CN(C)C [Compound 109, (S,E)-4-(dimethylamino)-N-(3-methoxy-5-(3-(1-oxo-1-((5-(trifluoromethyl)thiazol-2-yl)amino)propan-2-yl)phenyl)pyrazin-2-yl)but-2-enamide]",8.2
17,"C[C@H](C(=O)Nc1ncc(C(F)(F)F)s1)c1cccc(-c2cnc3c(c2)CCN3C(=O)/C=C/CN(C)C)c1 [Compound 110, (S,E)-2-(3-(1-(4-(dimethylamino)but-2-enoyl)-2,3-dihydro-1H-pyrrolo[2,3-b]pyridin-5-yl)phenyl)-N-(5-(trifluoromethyl)thiazol-2-yl)propanamide]",5.9
18,"C[C@H](C(=O)Nc1ncc(C(F)(F)F)s1)c1cccc(-c2cnc(NC(=O)/C=C/CN(C)C)c(C(F)(F)F)c2)c1 [Compound 111, (S,E)-4-(dimethylamino)-N-(5-(3-(1-oxo-1-((5-(trifluoromethyl)thiazol-2-yl)amino)propan-2-yl)phenyl)-3-(trifluoromethyl)pyridin-2-yl)but-2-enamide]",9.5

# Tested on: MV-4-11 cells
# Assay: MV-4-11 cell proliferation inhibition (CCK-8)
# Assay type: cell-based
# Details: Homo sapiens, MV4-11, MV-4-11, compound concentration 100 nM, 72 hours, read-out: Inhibition rate (%)
# Method: MV-4-11 cells are one of the acute myeloid leukemia cells with a Fms-like tyrosine kinase (FLT3) gene mutation, and these cells are used to test inhibition of proliferation and survival of leukemia cells.
# MV-4-11 cells cultured in a 96-well cell culture plate were treated with the compound of the present invention and cultured for 72 hours. Thereafter, the antiproliferative effect of the compound was assayed by the CCK-8 method using a tetrazolium salt.
row,SMILES,inhibition at 0.1 µM [%]
1,"C=CC(=O)Nc1ccc(-c2cc(C(C)C(=O)Nc3ncc(C4CC4)s3)ccn2)cn1 (stereo not drawn) [Compound 50, N-(4-(1-((5-cyclopropylthiazol-2-yl)amino)-1-oxopropan-2-yl)-[2,3′-bipyridin]-6′-yl)acrylamide]",100

# Same assay, conditions: Homo sapiens, MV4-11, MV-4-11 proliferation, 72 hours
row,SMILES,IC50 [nM]
1,"C=CC(=O)Nc1ccc(-c2cc(C(C)C(=O)Nc3ncc(C4CC4)s3)ccn2)cn1 (stereo not drawn) [Compound 50, N-(4-(1-((5-cyclopropylthiazol-2-yl)amino)-1-oxopropan-2-yl)-[2,3′-bipyridin]-6′-yl)acrylamide]",17.2
2,"C=CC(=O)Nc1cnc(-c2cncc(C(C)C(=O)Nc3ncc(Cl)s3)c2)cn1 (stereo not drawn) [Compound 61, N-(5-(5-(1-((5-chlorothiazol-2-yl)amino)-1-oxopropan-2-yl)pyridin-3-yl)pyrazin-2-yl)acrylamide]",9.1
3,"C=CC(=O)Nc1cnc(-c2cncc(C(C)C(=O)Nc3ncc(OC)s3)c2)cn1 (stereo not drawn) [Compound 66, N-(5-(5-(1-((5-methoxythiazol-2-yl)amino)-1-oxopropan-2-yl)pyridin-3-yl)pyrazin-2-yl)acrylamide]",22.8
4,"C=CC(=O)Nc1cnc(-c2cncc(C(C)C(=O)Nc3ncc(SC)s3)c2)cn1 (stereo not drawn) [Compound 71, N-(5-(5-(1-((5-(methylthio)thiazol-2-yl)amino)-1-oxopropan-2-yl)pyridin-3-yl)pyrazin-2-yl)acrylamide]",3.2
5,"C=CC(=O)Nc1ccc(-c2csc(C(C)C(=O)Nc3ncc(CC)s3)c2)cn1 (stereo not drawn) [Compound 77, N-(5-(5-(1-((5-ethylthiazol-2-yl)amino)-1-oxopropan-2-yl)thiophen-3-yl)pyridin-2-yl)acrylamide]",16.7
